Assay results published in patent US20240254082A1, “Substituted Isoindoline-1, 3-diketone PDE4 Inhibitor and Pharmaceutical Application Thereof” (SUZHOU INTRAGRAND PHARMA CO., LTD, priority 2021, published 2024).
Where two headings read alike, the source gives them in different places.

Experiments:
PDE1C = PDE1C (Homo sapiens, UniProt Q14123); test: Selective inhibitory activity assay, PDE1C; type: biochemical; conditions: read-out: Inhibition rate (%) of PDE1C
PDE3B = PDE3B (Homo sapiens, UniProt Q13370); test: Selective inhibitory activity assay, PDE3B; type: biochemical; conditions: read-out: Inhibition rate (%) of PDE3B
PDE2A = PDE2A (Homo sapiens, UniProt O00408); test: Selective inhibitory activity assay, PDE2A; type: biochemical; conditions: read-out: Inhibition rate (%) of PDE2A
PDE10A1 = PDE10A1 (Homo sapiens, UniProt Q9Y233); test: Selective inhibitory activity assay, PDE10A1; type: biochemical; conditions: read-out: Inhibition rate (%) of PDE10A1
PDE4C1 = biological target: T1, PDE4C1 (Homo sapiens, UniProt Q08493); test: Inhibition assay of PDE4C1 enzyme (FP kit); type: biochemical
T1 construct: purchased BPS 60384
Description: 5. Inhibition assay of PDE4C1 enzyme:
(§1) Materials and Instruments:
FAM substrate: 12.5 μL of a FAM substrate stock solution was added into 1250 μL of PDE assay buffer. 12.5 μL of the diluted substrate was added to each reaction well.
(§2) 5 μL of the compound stock solution was added to 45 μL of DMSO to prepare a 1 mM diluent. 5 μL of the 1 mM diluent was added to 45 μL of PDE assay buffer to prepare a gradient dilution starting point. Then, according to the method of adding 5 μL of the previous concentration solution to 15 μL of PDE assay buffer, gradient dilution was carried out for 9 times to prepare compound working solutions with 10 concentrations. The working solutions were added to compound wells at 2.5 μL/well.
PDE4C1: First, a PDE4C1 stock solution was diluted by 100 times to a concentration of 3.2 ng/μL, 13.75 μL of the diluent was added to 1100 μL of PDE assay buffer, and the mixture was added to all compound wells and positive control wells at 10 μL/well. 10 μL of PDE assay buffer was added to substrate control wells.
Binding solution: 50 μL of binder was added into 5 mL of binder diluent, and then mixed well. The obtained mixture was added to all wells at 50 μL/well.
(§3) FPsub=Substrate control FP.

PDE7A = PDE7A (Homo sapiens, UniProt Q13946); test: Selective inhibitory activity assay, PDE7A; type: biochemical; conditions: read-out: Inhibition rate (%) of PDE7A
PDE4D3 = PDE4D3 (Homo sapiens, UniProt Q08499); test: Inhibition assay of PDE4D3 enzyme (TR-FRET kit); type: biochemical
Description: 2. Inhibition assay of PDE4D3 enzyme:
as §1
FAM substrate: A stock solution of 20 μM FAM substrate was diluted to 200 nM with PDE assay buffer. 12.5 μL of the diluted substrate was added to each reaction well.
as §2
PDE4D3: 0.054 μL of a PDE4D3 recombinase stock solution was added to 1500 μL of PDE buffer, and the mixture was added to all compound wells and positive control wells at 10 μL/well. 10 μL of PDE assay buffer was added to substrate control wells.
Binding solution: 3750 μL of binding buffer A and 3750 μL of binding buffer B were mixed well. Then, 150 μL of a binder was added into the mixture and mixed well. 7.5 μL of a Tb donor was added and mixed well. The obtained mixture was added to all wells at 50 μL/well.
S520=Read value of sample 520 nm
S490=Read value of sample 490 nm
Tb520=Read value of Tb only 520 nm
Tb490=Read value of Tb only 490 nm
FRETp=Positive control FRET
FRETsub=Substrate control FRET.

PDE4A1 = biological target: T2, PDE4A1 (Homo sapiens, UniProt P27815); test: Inhibition assay of PDE4A1 enzyme (FP kit); type: biochemical
T2 construct: purchased BPS 60340
Description: 3. Inhibition assay of PDE4A1 enzyme:
as §1
(§4) FAM substrate: 25 μL of a FAM substrate stock solution was added into 2500 μL of PDE assay buffer. 25 μL of the diluted substrate was added to each reaction well.
as §2, with “5” for “2.5”
(§5) PDE4A1: First, a PDE4A1 stock solution was diluted by 100 times to a concentration of 4.9 ng/μL, 1.8 μL of the diluent was added to 2200 μL of PDE assay buffer, and the mixture was added to all compound wells and positive control wells at 20 μL/well. 20 μL of PDE assay buffer was added to substrate control wells.
Binding solution: 95 μL of binding buffer was added into 9.5 mL of binder diluent, and then mixed well. The obtained mixture was added to all wells at 100 μL/well.
as §3

IL-2 = test: Inhibition of IL-2 induced in human peripheral blood mononuclear cells; type: cell-based; conditions: human PBMC, stimulus SEB; read-out: IC50 (nM), cytokine IL-2
Description: 8. Inhibitory assay of inflammatory factors TNF-α, IL-2, INF-γ
Determination of TNF-α, IL-2 and INF-γ induced by LPS/SEB in human peripheral blood mononuclear cells:
1. The purchased PBMC frozen cells were thawed at 37° C., transferred to RMPI1640 medium, and incubated overnight at 37° C. in an incubator containing 5% of CO2.
2. The next day, the cells were planked at 2×10^5 cells/well, with 100 μL per well.
4. LPS stimulus was added to each well at a final concentration of 10 ng/ml.
5. Incubation was carried out overnight at […] in an incubator containing 5% of CO2.
6. On the third day, the cell culture supernatant was collected, and cytokine assay was performed using an MSD method.

PDE5A1 = PDE5A1 (Homo sapiens, UniProt O76074); test: Selective inhibitory activity assay, PDE5A1; type: biochemical; conditions: read-out: Inhibition rate (%) of PDE5A1
PDE4B2 = biological target: T3, PDE4B2 (Homo sapiens, UniProt Q07343); test: Inhibition assay of PDE4B2 enzyme (FP kit); type: biochemical
T3 construct: purchased BPS 60343
Description: 4. Inhibition assay of PDE4B2 enzyme:
as §1, §4
as §2, with “5” for “2.5”
as §5, with “PDE4B2:” for “PDE4A1:”, “PDE4B2” for “PDE4A1”, “5.2” for “4.9”, “3.2” for “1.8”
Binding solution: 95 μL of binder was added into 9.5 mL of binder diluent, and then mixed well. The obtained mixture was added to all wells at 100 μL/well.
as §3

INF-γ = test: Inhibition of INF-γ induced in human peripheral blood mononuclear cells; type: cell-based
TNF-α = test: Inhibition of TNF-α induced in human peripheral blood mononuclear cells; type: cell-based; conditions: human PBMC, stimulus LPS; read-out: IC50 (nM), cytokine TNF-α

PDE2A, sequence (O00408 whole entry, species assumed): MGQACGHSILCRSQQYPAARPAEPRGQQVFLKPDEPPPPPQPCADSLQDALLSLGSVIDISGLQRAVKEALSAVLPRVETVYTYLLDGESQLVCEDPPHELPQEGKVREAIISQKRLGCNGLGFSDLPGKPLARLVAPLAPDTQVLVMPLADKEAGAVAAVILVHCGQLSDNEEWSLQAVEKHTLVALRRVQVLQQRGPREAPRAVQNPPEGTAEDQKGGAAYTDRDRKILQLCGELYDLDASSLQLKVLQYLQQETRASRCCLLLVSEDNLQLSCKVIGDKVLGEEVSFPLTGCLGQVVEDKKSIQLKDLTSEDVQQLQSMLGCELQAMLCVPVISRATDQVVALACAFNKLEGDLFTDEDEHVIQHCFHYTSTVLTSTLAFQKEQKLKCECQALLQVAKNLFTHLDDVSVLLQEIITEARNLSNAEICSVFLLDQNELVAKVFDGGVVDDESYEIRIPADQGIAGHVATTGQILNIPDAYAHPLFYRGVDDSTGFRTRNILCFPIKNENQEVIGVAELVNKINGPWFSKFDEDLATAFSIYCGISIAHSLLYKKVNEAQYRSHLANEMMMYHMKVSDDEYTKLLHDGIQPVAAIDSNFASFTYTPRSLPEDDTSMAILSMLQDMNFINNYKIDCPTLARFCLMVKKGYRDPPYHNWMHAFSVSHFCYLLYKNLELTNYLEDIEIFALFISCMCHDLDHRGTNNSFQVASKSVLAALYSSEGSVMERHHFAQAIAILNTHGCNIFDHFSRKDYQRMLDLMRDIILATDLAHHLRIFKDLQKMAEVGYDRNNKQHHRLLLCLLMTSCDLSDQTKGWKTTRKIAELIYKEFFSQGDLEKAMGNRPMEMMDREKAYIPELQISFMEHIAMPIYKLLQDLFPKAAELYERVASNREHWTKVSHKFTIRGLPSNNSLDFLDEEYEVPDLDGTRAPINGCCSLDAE
PDE3B, sequence (Q13370 whole entry, species assumed): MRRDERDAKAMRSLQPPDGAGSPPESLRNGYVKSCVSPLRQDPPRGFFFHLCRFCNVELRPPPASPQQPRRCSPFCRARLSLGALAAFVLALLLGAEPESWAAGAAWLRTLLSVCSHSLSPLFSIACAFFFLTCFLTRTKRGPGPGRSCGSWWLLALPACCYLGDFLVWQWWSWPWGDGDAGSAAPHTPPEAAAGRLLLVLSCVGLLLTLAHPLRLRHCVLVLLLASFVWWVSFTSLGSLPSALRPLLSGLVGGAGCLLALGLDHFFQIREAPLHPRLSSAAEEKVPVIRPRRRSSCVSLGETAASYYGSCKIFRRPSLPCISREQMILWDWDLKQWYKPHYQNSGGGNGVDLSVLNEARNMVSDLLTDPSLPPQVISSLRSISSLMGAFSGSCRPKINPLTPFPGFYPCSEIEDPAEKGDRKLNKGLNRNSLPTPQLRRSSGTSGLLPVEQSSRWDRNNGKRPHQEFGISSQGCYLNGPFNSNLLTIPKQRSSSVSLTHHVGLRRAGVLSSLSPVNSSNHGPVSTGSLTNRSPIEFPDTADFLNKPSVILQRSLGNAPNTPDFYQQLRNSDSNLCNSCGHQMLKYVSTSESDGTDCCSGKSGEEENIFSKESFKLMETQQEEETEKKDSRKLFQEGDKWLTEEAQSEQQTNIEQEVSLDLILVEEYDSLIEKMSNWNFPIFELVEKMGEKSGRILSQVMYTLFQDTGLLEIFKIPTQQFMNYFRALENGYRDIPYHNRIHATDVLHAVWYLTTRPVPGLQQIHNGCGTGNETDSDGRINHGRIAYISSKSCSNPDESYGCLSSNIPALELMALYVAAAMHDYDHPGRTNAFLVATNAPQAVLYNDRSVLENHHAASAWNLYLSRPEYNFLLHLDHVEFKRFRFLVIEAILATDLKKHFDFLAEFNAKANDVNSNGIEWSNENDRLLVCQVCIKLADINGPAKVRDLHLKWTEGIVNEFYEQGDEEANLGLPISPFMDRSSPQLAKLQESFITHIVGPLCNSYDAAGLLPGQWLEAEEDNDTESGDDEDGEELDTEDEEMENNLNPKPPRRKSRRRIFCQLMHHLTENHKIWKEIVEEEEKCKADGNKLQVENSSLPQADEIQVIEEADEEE
PDE1C, sequence (Q14123 whole entry, species assumed): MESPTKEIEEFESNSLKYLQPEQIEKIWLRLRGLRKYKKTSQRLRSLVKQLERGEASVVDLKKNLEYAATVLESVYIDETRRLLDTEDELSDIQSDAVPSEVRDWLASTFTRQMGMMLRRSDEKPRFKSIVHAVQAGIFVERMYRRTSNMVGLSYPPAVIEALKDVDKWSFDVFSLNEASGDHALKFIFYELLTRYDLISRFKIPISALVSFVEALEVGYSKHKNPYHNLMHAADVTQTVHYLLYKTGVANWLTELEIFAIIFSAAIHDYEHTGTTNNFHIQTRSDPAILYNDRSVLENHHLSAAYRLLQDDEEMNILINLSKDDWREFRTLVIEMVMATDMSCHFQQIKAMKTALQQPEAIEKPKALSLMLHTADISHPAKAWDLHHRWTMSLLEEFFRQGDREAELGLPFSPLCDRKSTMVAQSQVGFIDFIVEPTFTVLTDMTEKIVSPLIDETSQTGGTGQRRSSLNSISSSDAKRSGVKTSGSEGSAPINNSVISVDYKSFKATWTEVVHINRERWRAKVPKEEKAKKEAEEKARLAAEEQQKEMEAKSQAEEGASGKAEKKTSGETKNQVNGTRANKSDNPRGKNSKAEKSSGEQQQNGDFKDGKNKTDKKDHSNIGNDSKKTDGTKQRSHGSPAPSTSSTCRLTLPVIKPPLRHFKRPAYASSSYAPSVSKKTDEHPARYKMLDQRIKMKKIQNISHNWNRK
PDE10A1, sequence (Q9Y233 1-779 isoform Q9Y233-1, species assumed): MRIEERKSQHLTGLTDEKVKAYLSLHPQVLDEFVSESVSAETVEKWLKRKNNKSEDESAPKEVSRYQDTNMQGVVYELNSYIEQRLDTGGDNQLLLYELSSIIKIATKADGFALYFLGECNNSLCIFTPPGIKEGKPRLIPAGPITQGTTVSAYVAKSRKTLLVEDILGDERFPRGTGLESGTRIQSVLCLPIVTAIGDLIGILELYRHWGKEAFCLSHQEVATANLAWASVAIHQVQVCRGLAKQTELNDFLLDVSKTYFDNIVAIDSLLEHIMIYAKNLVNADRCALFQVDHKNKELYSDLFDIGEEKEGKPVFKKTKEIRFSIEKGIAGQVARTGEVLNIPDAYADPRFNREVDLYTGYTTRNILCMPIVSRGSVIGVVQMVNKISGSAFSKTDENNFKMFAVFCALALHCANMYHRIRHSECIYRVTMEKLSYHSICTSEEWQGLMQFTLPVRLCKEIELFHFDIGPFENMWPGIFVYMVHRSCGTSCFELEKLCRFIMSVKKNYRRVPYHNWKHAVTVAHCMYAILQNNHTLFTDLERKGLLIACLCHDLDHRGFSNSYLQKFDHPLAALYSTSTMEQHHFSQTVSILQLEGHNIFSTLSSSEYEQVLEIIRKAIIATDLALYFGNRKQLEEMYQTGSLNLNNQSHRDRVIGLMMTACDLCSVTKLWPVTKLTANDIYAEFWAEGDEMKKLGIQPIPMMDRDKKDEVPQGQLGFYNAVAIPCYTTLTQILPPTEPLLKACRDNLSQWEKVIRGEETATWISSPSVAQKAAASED
PDE7A, sequence (Q13946 whole entry, species assumed): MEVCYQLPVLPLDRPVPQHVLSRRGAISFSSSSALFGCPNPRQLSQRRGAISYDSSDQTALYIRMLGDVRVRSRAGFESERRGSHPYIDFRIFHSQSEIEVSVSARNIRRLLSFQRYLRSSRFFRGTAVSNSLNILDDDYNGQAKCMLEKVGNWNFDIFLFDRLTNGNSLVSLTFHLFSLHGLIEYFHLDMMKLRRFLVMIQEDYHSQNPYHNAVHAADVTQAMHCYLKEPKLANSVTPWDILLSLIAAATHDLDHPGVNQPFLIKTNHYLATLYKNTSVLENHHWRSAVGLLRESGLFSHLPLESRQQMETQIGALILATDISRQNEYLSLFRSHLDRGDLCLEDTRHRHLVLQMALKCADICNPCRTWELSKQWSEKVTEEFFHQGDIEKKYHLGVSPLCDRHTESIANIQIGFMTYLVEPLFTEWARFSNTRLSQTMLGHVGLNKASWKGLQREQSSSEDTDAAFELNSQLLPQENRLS
T2 sequence (P27815 1-647 isoform P27815-4): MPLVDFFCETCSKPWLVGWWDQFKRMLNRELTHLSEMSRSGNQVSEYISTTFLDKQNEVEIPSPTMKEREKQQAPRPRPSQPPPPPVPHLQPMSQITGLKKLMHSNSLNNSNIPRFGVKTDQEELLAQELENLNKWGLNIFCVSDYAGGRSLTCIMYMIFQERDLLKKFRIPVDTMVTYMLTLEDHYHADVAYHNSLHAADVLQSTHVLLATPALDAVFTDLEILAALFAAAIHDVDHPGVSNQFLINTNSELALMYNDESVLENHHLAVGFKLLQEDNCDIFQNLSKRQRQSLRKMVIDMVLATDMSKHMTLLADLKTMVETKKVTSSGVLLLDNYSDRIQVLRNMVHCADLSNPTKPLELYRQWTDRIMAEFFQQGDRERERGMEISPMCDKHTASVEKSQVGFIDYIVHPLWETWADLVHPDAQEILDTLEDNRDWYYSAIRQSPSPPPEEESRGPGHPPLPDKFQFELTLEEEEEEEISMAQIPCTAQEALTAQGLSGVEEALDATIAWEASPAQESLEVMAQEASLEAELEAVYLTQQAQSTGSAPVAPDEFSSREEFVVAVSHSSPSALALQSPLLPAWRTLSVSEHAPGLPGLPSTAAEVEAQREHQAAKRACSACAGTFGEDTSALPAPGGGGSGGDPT

`CCCCCc1ccc(NC(C)=O)c2c1C(=O)N([C@H](CS(C)(=O)=O)c1ccc(OC)c(OCC)c1)C2=O` [Example 9, (S)-2-[1-(3-ethoxy-4-methoxyphenyl)-2-alkylsulfonylethyl]-4-acetamido-7-pentyl isoindoline-1,3-diketone] was tested, and the inhibition at 1 µM (PDE1C; 1 μM) was 0.49%, the inhibition at 10 µM (PDE1C; 10 μM) was 30.6% and the inhibition at 1 µM (PDE3B; 1 μM) was 5.44%. It also gave an inhibition at 10 µM (PDE3B; 10 μM) of 0.81%, an inhibition at 1 µM (PDE2A; 1 μM) of 5.83% and an inhibition at 10 µM (PDE2A; 10 μM) of 12.2%. For the same compound, the inhibition at 1 µM (PDE10A1; 1 μM) was 0%, the inhibition at 10 µM (PDE10A1; 10 μM) was 10.1% and the IC50 (PDE4C1) was under 200 nM. It also gave an inhibition at 1 µM (PDE7A; 1 μM) of 20.8%, an inhibition at 10 µM (PDE7A; 10 μM) of 44.5% and an IC50 (PDE4D3) of under 5 nM. For the same compound, the IC50 (PDE4A1) was under 100 nM, the IC50 (IL-2) was 0.44 nM and the inhibition at 1 µM (PDE5A1; 1 μM) was 1.99%. It also gave an inhibition at 10 µM (PDE5A1; 10 μM) of 5.74%, an IC50 (PDE4B2) of under 100 nM and an IC50 (INF-γ; Homo sapiens, PBMC, read-out: IC50 (nM), cytokine INF-r, human PBMC, stimulus SEB) of 1.82 nM. It also gave an IC50 (INF-γ; human PBMC, stimulus LPS, read-out: IC50 (nM), cytokine INF-r) of 0.43 nM and an IC50 (TNF-α) of 0.82 nM.
